{"source": "patent US20230225324A1", "about": "“Synergistic Pesticidal Composition Against Sucking Pests Complex” (priority 2020, published 2023)", "key": {"White fly": {"tested_on": "White fly", "assay": "Synergistic insecticidal effect of the combination, mortality of White fly (Table 2)", "assay_type": "in vivo", "description": "(§1) Evaluation of the synergistic insecticidal effect of the composition comprising Diafenthiuron, Pyriproxyfen and an insecticide Dinotefuran can be established by using any synergistic insecticidal composition prepared by the process described in the above examples. For these evaluations one or more of the synergistic insecticidal compositions prepared in the examples are used here.\n(§2) Synergism can be calculated by using the Colby's method i.e. the expected (or predicted) response of the combination is calculated by taking the product of the observed response for each individual component of the combination when applied alone divided by 100 and subtracting this value from the sum of observed response for each component when applied alone. Synergism of the combination is then determined by comparing the observed response of the combination to the expected (or predicted) response as calculated from the observed response of each individual component alone. If the observed response of the combination is greater than the expected (or predicted) response then the combination is said to be synergistic and falls within the definition of synergistic effect. (Colby, S. R., Weeds, 1967(15), p. 20-22)."}, "Jassids": {"tested_on": "Jassids", "assay": "Synergistic insecticidal effect of the combination, mortality of Jassids (Table 3)", "assay_type": "in vivo", "description": "as §1, §2"}}, "data": [{"smiles": "CC(COc1ccc(Oc2ccccc2)cc1)Oc1ccccn1", "note": "(racemic) [Pyriproxyfen, 4-phenoxyphenyl (RS)-2-(2-pyridyloxy)propyl ether]", "values": [{"measurement": "Observed Mortality %", "setting": "White fly; Pyriproxyfen 72 ppm", "result": 30.70, "unit": "%"}, {"measurement": "Observed Mortality %", "setting": "White fly; Pyriproxyfen 96 ppm", "result": 38.10, "unit": "%"}, {"measurement": "Observed Mortality %", "setting": "White fly; Pyriproxyfen 120 ppm", "result": 43.70, "unit": "%"}, {"measurement": "Observed Mortality %", "setting": "White fly; Pyriproxyfen 144 ppm", "result": 46.60, "unit": "%"}, {"measurement": "Observed Mortality %", "setting": "Jassids; Pyriproxyfen 72 ppm", "result": 21.70, "unit": "%"}, {"measurement": "Observed Mortality %", "setting": "Jassids; Pyriproxyfen 96 ppm", "result": 29.20, "unit": "%"}, {"measurement": "Observed Mortality %", "setting": "Jassids; Pyriproxyfen 120 ppm", "result": 35.50, "unit": "%"}, {"measurement": "Observed Mortality %", "setting": "Jassids; Pyriproxyfen 144 ppm", "result": 37.90, "unit": "%"}]}, {"smiles": "CC(C)c1cc(Oc2ccccc2)cc(C(C)C)c1NC(=S)NC(C)(C)C", "note": "[Diafenthiuron, 1-tert-butyl-3-(2,6-di-isopropyl-4-phenoxyphenyl)thiourea]", "values": [{"measurement": "Observed Mortality %", "setting": "White fly; Diafenthiuron 120 ppm", "result": 38.40, "unit": "%"}, {"measurement": "Observed Mortality %", "setting": "White fly; Diafenthiuron 240 ppm", "result": 48.50, "unit": "%"}, {"measurement": "Observed Mortality %", "setting": "White fly; Diafenthiuron 360 ppm", "result": 57.30, "unit": "%"}, {"measurement": "Observed Mortality %", "setting": "White fly; Diafenthiuron 480 ppm", "result": 61.80, "unit": "%"}, {"measurement": "Observed Mortality %", "setting": "Jassids; Diafenthiuron 120 ppm", "result": 28.90, "unit": "%"}, {"measurement": "Observed Mortality %", "setting": "Jassids; Diafenthiuron 240 ppm", "result": 42.00, "unit": "%"}, {"measurement": "Observed Mortality %", "setting": "Jassids; Diafenthiuron 360 ppm", "result": 48.50, "unit": "%"}, {"measurement": "Observed Mortality %", "setting": "Jassids; Diafenthiuron 480 ppm", "result": 57.40, "unit": "%"}]}, {"smiles": "CN/C(=N/CC1CCOC1)N[N+](=O)[O-]", "note": "(stereo not drawn) [Dinotefuran, 2-methyl-1-nitro-3-[(tetrahydro-3-furanyl)methyl]guanidine]", "values": [{"measurement": "Observed Mortality %", "setting": "White fly; Dinotefuran 45 ppm", "result": 35.10, "unit": "%"}, {"measurement": "Observed Mortality %", "setting": "White fly; Dinotefuran 60 ppm", "result": 45.50, "unit": "%"}, {"measurement": "Observed Mortality %", "setting": "White fly; Dinotefuran 75 ppm", "result": 52.00, "unit": "%"}, {"measurement": "Observed Mortality %", "setting": "White fly; Dinotefuran 90 ppm", "result": 61.40, "unit": "%"}, {"measurement": "Observed Mortality %", "setting": "Jassids; Dinotefuran 45 ppm", "result": 65.60, "unit": "%"}, {"measurement": "Observed Mortality %", "setting": "Jassids; Dinotefuran 60 ppm", "result": 73.40, "unit": "%"}, {"measurement": "Observed Mortality %", "setting": "Jassids; Dinotefuran 75 ppm", "result": 79.00, "unit": "%"}, {"measurement": "Observed Mortality %", "setting": "Jassids; Dinotefuran 90 ppm", "result": 83.80, "unit": "%"}]}]}
